Reference: article PMC9503778, “Targeted Isolation of Antibiotic Brominated Alkaloids from the Marine Sponge Pseudoceratina durissima Using Virtual Screening and Molecular Networking” (Marine Drugs, 2022)
“And” between values parts separate entries of the source, which are not always exact repeats. Equal values may be shown once. Read-outs that look alike come from different tables or passages of the source.

Legend:
[1] = Cytotoxicity assay (CO-ADD); assay type: cell-based; conditions: human embryonic kidney cells
[2] = tested on: human red blood cells; assay: Haemolysis assay (CO-ADD); assay type: cell-based
[3] = tested on: MRSA (G+) strain ATCC 43300; assay: Antimicrobial growth inhibition (CO-ADD), MRSA; assay type: cell-based, Staphylococcus aureus; conditions: for % inhibition MRSA: 32 µg/mL, duplicate (n = 2) values; for inhibition at 32 µg/mL / MIC: Staphylococcus aureus; for inhibition at 32 µg/mL: read-out: % inhibition MRSA, 32 µg/mL, duplicate (n = 2) values; for MIC: ATCC 43300, MIC = concentration at which growth inhibited by ≥80%, range 0.25−32 µg/mL, read-out: MIC MRSA
Protocol: (§1) Compounds 1−3 and 5−12 were assayed against a selection of medically important pathogenic microorganisms (MRSA, E. coli, K. pneumoniae, A. baumanii, P. aeruginosa, C. albicans, C. neoformans), Table 4. […] To the best of our knowledge this compound had not been tested against any drug resistant strain of Gram-positive bacterium until this study.
(§2) The antimicrobial activity testing was performed by the Community for Antimicrobial Drug Discovery (CO-ADD). Compounds were assayed against a range of both Gram negative and Gram positive bacteria (see Supplementary Materials S3) including methicillin-resistant Staphylococcus aureus (MRSA) (G+), Escherichia coli (G-), Klebsiella pneumoniae (G-), Acinetobacter baumannii (G-), Pseudomonas aeruginosa (G-) together with two species of fungus (Candida albicans and Cryptococcus neoformans).
(§3) S3. Antimicrobial activity testing methodology
(§4) The compounds submitted to CO-ADD were evaluated in duplicate (n = 2) against seven microorganisms (five bacteria and two fungi) at a concentration of 32 µg/mL in a 384-well, non-binding surface plate (NBS) for each bacterial/fungal strain, keeping the final DMSO concentration to a maximum of 1% DMSO. All bacteria were cultured in cation-adjusted Mueller-Hinton broth (CAMHB) at 37 °C overnight. A sample of each culture was then diluted 40-fold in fresh broth and incubated at 37 °C for 1.5-3 h. The resultant mid-log phase cultures were diluted (CFU/mL measured by OD600), then added to each well of the compound containing plates, giving a cell density of 5x10^5 CFU/mL and a total volume of 50 µL. All the plates were covered and incubated at 37 °C for 18 h without shaking. […] Inhibition of bacterial growth was determined measuring absorbance at 600 nm (OD600) using a Tecan M1000 Pro mon-ochromator plate reader. […]
(§5) 2 h. The absorbance was measured using a Biotek Synergy HTX plate reader. The percentage of growth inhibition was calculated for each well, using negative control (medium only) and positive control (bacteria without inhibitors) on the same plate as the references. The significance of inhibition values was determined by modified Z-scores, calculated using the median and MAD of the samples (no controls) on the same plate. Samples with inhibition value above 80% and Z-score above 2.5 for either replicate (n = 2 on different plates) were classed as actives.
(§6) Colistin and vancomycin were used as positive bacterial inhibitor standards for Gram-negative and Gram-positive bac-teria, respectively. Fluconazole was used as a positive fungal inhibitor standard for C. albicans and C. neoformans. The antibiotics were provided in four concentrations, with two above and two below its MIC value, and plated into the first eight wells of column 23 of the 384-well NBS plates. The quality control (QC) of the assays was determined by the antimicrobial controls and the Z’-factor (using positive and negative controls). Each plate was deemed to fulfil the qual- […]
(§7) full growth inhibition at their highest concentration, and no growth inhibition at their lowest concentration. The seven […]
(§8) test microorganisms were Staphylococcus aureus MRSA (ATCC 43300), Escherichia coli (ATCC 25922), Klebsiella pneu-moniae (ATCC 700603), Acinetobacter baumanii (ATCC19606), Pseudomonas aeruginosa (ATCC 27853), Candida albicans (ATCC 90028) and Cryptococcus neoformans var. grubii (H99; ATCC 208821).
(§9) S4. Anthelmintic activity testing methodology
(§10) Dose-response evaluations were carried out to estimate the half-maximal inhibitory concentrations (IC50 values) for compounds against Haemonchus contortus (Haecon-5 strain) exsheathed third-stage larvae (xL3s). H. contortus were maintained in experimental sheep and procured in accordance with the institutional animal ethics guidelines and the regulations of Australia (permit no. 1714374; University of Melbourne). Immediately prior to use, third-stage larvae (L3s) were exsheathed and sterilised by incubation in 0.15% (v/v) bleach at 38 °C for 20 min, followed by washes in […]

[4] = tested on: E. Coli (G-) strain ATCC 25922; assay: Antimicrobial growth inhibition (CO-ADD), E. coli; assay type: cell-based, Escherichia coli; conditions: for % inhibition E. coli: 32 µg/mL; for inhibition at 32 µg/mL / MIC: Escherichia coli; for MIC: ATCC25922, ATCC 25922, MIC = concentration at which growth inhibited by ≥80%, read-out: MIC E. coli
Protocol: as §1, §2, §3, §4, §5, §6, §7, §8, §9, §10

[5] = tested on: K. pneumoniae (G-) strain ATCC 700603; assay: Antimicrobial growth inhibition (CO-ADD), K. pneumoniae; assay type: cell-based, Klebsiella pneumoniae; conditions: for % inhibition K. pneumoniae: 32 µg/mL; for inhibition at 32 µg/mL / MIC: Klebsiella pneumoniae; for MIC: ATCC700603, ATCC 700603, read-out: MIC K. pneumoniae
Protocol: as §1, §2, §3, §4, §5, §6, §7, §8, §9, §10

[6] = tested on: A. baumannii (G-) strain ATCC 19606; assay: Antimicrobial growth inhibition (CO-ADD), A. baumannii; assay type: cell-based, Acinetobacter baumannii; conditions: for % inhibition A. baumannii: 32 µg/mL; for MIC / inhibition at 32 µg/mL: Acinetobacter baumannii; for MIC: ATCC19606, ATCC 19606, read-out: MIC A. baumannii
Protocol: as §1, §2, §3, §4, §5, §6, §7, §8, §9, §10

[7] = tested on: C. neoformans var. grubii strain ATCC 208821; assay: Antimicrobial growth inhibition (CO-ADD), C. neoformans; assay type: cell-based, Cryptococcus neoformans; conditions: for % inhibition C. neoformans: 32 µg/mL; for inhibition at 32 µg/mL: Cryptococcus neoformans
Protocol: as §1, §2, §3
The compounds submitted to CO-ADD were evaluated in duplicate (n = 2) against seven microorganisms (five bacteria and two fungi) at a concentration of 32 µg/mL in a 384-well, non-binding surface plate (NBS) for each bacterial/fungal strain, keeping the final DMSO concentration to a maximum of 1% DMSO. All bacteria were cultured in cation-adjusted […]
Fungal strains were cultured for 3 days on Yeast Extract-Peptone Dextrose (YPD) agar at 30 °C. A yeast suspension of 1 x 10^6 to 5 x 10^6 CFU/mL (as determined by OD530) was prepared from five colonies. The suspension was subsequently diluted and added to each well of the compound-containing plates giving a final cell density of fungi suspension of 2.5 x 10^3 CFU/mL and a total volume of 50 µL. All plates were covered and incubated at 35 °C for 24 h without shaking. […]
as §5, with “Growth inhibition of C. albicans was determined measuring absorbance at 530 nm (OD530), while the growth inhibition of C. neoformans was determined measuring the difference in absorbance between 600 and 570 nm (OD600-570), after the addition of resazurin (0.001% final concentration) and incubation at 35 °C for an additional 2 h.” for “2 h.”
as §6, §7, §8, §9
Dose-response evaluations were carried out to estimate the half-maximal inhibitory concentrations (IC50 values) for compounds against Haemonchus contortus (Haecon-5 strain) exsheathed third-stage larvae (xL3s). H. contortus were maintained in experimental sheep and procured in accordance with the institutional animal ethics guidelines and the […]

[8] = tested on: C. neoformans var. grubii strain ATCC 208821; assay: as above; assay type: cell-based; conditions: Cryptococcus neoformans, ATCC208821; var. grubii ATCC 208821; read-out: MIC C. neoformans
[9] = ATCC25922, read-out: % inhibition E. coli, 32 µg/mL, duplicate (n = 2) values
[10] = ATCC700603, read-out: % inhibition K. pneumoniae, 32 µg/mL, duplicate (n = 2) values
[11] = ATCC208821, read-out: % inhibition C. neoformans, 32 µg/mL, duplicate (n = 2) values
[12] = ATCC19606, read-out: % inhibition A. baumannii, 32 µg/mL, duplicate (n = 2) values
[13] = ATCC700603, 32 µg/mL, duplicate (n = 2) values, read-out: % inhibition K. pneumoniae

SMILES	CC50 [1] [µg/mL]	Haemolysis (HC10) [2] [µg/mL]	% inhibition MRSA [3]	inhibition at 32 µg/mL [3] [%]	MIC [3] [µg/mL]	% inhibition E. coli ([4]; duplicate (n = 2) values)	inhibition at 32 µg/mL [4, 9] [%]	MIC [4] [µg/mL]	% inhibition K. pneumoniae ([5]; duplicate (n = 2) values)	inhibition at 32 µg/mL [5, 10] [%]	MIC [5] [µg/mL]	% inhibition A. baumannii ([6]; duplicate (n = 2) values)	MIC [6] [µg/mL]	% inhibition C. neoformans ([7]; duplicate (n = 2) values)	inhibition at 32 µg/mL [7, 11] [%]	MIC [8] [µg/mL]	inhibition at 32 µg/mL [6, 12] [%]	CC50 ([1]; human) [µg/mL]	inhibition at 32 µg/mL [5, 13] [%]	other results
COC1=C(Br)[C@H](O)[C@@]2(C=C1Br)CC(C(=O)NCCCOc1c(Br)cc(CCN)cc1Br)=NO2 [Compound 11, araplysillin I]	> 32	>32	5.7%	11.3	> 32	8.5%	15.9	> 32	17.0%	12.2	> 32	3.4% and 7.3%	> 32	7.8%	7.6	> 32	–	–	–	–
COC1=C(Br)[C@H](O)[C@@]2(C=C1Br)CC(C(=O)NCCCCCNC(=O)C1=NO[C@]3(C=C(Br)C(OC)=C(Br)[C@@H]3O)C1)=NO2 [Compound 3, homoaerothionin]	> 32	>32	–	–	> 32	−2.9% and −3.1%	–	> 32	6.6%	10.2	> 32	9.8%	> 32	16.1%	10.6	> 32	13.8	–	–	–
NC(=O)Cc1c(O)cc(Br)c(O)c1Br [Compound 9, subereaphenol A]	–	1.032	–	–	> 32	1.5% and 9.6%	–	> 32	15.5% and 6.6%	–	> 32	18.5%	> 32	11.9%	–	> 32	–	> 32	–	inhibition at 32 µg/mL ([6]; ATCC19606, 32 µg/mL, duplicate (n = 2) values, read-out: % inhibition A. baumannii): 10.8%; inhibition at 32 µg/mL ([7]; ATCC208821, 32 µg/mL, duplicate (n = 2) values, read-out: % inhibition C. neoformans): 11.2%
COC1=C(Br)[C@H](O)[C@@]2(C=C1Br)CC(C(=O)NCCCOc1c(Br)cc(CCNC(=O)C3=NO[C@]4(C=C(Br)C(OC)=C(Br)[C@@H]4O)C3)cc1Br)=NO2 [Compound 5, 11,17-deoxyfistularin-3]	> 32	>32	19.8%	10	> 32	9.5%	8.1	> 32	8.7%	6.5	> 32	8.5%	> 32	10.4% and 3.8%	–	> 32	10.2	–	–	–
COC1(OC)C(Br)=CC(O)(CC(N)=O)C=C1Br [Compound 6, 2-(3,5-dibromo-1-hydroxy-4,4-dimethoxycyclohexa-2,5-dien-1-yl)acetamide]	–	>32	3.3% and 7.0%	–	> 32	15.6%	–	> 32	6.4%	–	> 32	2.3% and 9.7%	> 32	11.1% and 2.0%	–	> 32	–	> 32	12.3	inhibition at 32 µg/mL ([4]; ATCC25922, 32 µg/mL, duplicate (n = 2) values, read-out: % inhibition E. coli): 14.6%
COC1=C(Br)[C@H](O)[C@@]2(C=C1Br)CC(C(=O)NCCCCNC(=O)C1=NO[C@]3(C=C(Br)C(OC)=C(Br)[C@@H]3O)C1)=NO2 [Compound 2, aerothionin]	–	>32	−1.5% and 6.1%	–	> 32	0.9% and 2.3%	–	> 32	10.9%	–	> 32	–	> 32	–	–	> 32	–	> 32	10.4	–
